Assay results as given in patent EP1369120B1 (priority 2002, dated 2003).
Values joined by “and” are separate entries in the source; they are usually repeats but may differ in a detail not shown here. Identical values can stand only once. Like-named read-outs stand apart in the source and are kept apart here.

How the values were obtained:
[1] = test system: Huh-7 cells containing HCV sub-genomic replicons (Ava.5); test: cells; type: cell-based
[2] = test system: HCV sub-genomic replicons (Ava.5); test: microbe, parasite or virus in culture; type: cell-based, hepatitis C virus
HCV = type: cell-based; conditions: 300 nM As2O3 (data not shown)
[3] = huh-7 hcv replicon cells, 1440 min, 1 µM
[4] = huh-7 hcv replicon cells, 4320 min, 0.01 µM
[5] = huh-7 hcv replicon cells, 4320 min, 0.05 µM
[6] = huh-7 hcv replicon cells, 4320 min, 0.1 µM
[7] = huh-7 hcv replicon cells, 4320 min, 1 µM

O=[As]O [Sodium arsenite]
IC50 ([1]; Hepatitis C virus, Ava5, 24 h): 10000 nM | EC50 ([2]; Hepatitis C virus, Ava5, 24 h): 250 nM

Potassium antimony tartrate [Potassium antimony tartrate (PAT)]
IC50 ([1]; read-out: IC50): 35000 nM | inhibition of HCV replication ([2]; 5 µM): 75 % inhibition of HCV replication at 5 µM of PAT treatment

arsenic trioxide [As2O3]
inhibition of the replication (HCV): completely | IC50 ([1]; read-out: IC50): 6000 nM | IC50 ([1]; read-out: ICso (concentration which causes 50% cell death)): 8500 nM and 4800 nM | inhibition of replication of HCV RNA [2]: dose-dependent manner | negative strand of HCV RNA detected (relative copy number) [2, 3]: 14.1% | positive strand of HCV RNA detected (relative copy number) [2, 3]: 15.6% | relative HCV RNA level (negative strand) [2, 4]: 135.3% | relative HCV RNA level (positive strand) [2, 4]: 95.1% | relative HCV RNA level (negative strand) [2, 5]: 74.3% | relative HCV RNA level (positive strand) [2, 5]: 70% | relative HCV RNA level (negative strand) [2, 6]: 67.5% | relative HCV RNA level (positive strand) [2, 6]: 57.5% | negative strand HCV RNA detected (relative copy number) [2, 7]: 2.6% | positive strand RNA detected (relative copy number) [2, 7]: 6.1% | EC50 ([2]; read-out: EC50): 260 nM and 190 nM and 270 nM and 160 nM and 200 nM
